From the supplement of paper PMC10331698
± gives the standard deviation of the averaged measurements.

What was measured:
Test in all cases: level (log10 ratio to DMSO vehicle control); higher = higher biomarker level / cell amount than vehicle control
Details in all cases: in DMSO
[1] = compound: OCCC(F)(F)C(F)(F)C(F)(F)C(F)(F)C(F)(F)C(F)(F)F [6:2 Fluorotelomer alcohol]
Protocol: (§1)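 BioMAP Diversity Plus panel of 12 human primary cell co-culture systems (3C, 4H, LPS, SAg, BT, BF4T, BE3C, CASM3C, HDF3CGF, KF3CT, MyoF, Mphg). Compounds were added 1 h before stimulation and left for 24 h (MyoF 48 h; BT 72 h for soluble read-outs or 6 d for IgG). Biomarkers were read by ELISA, cytotoxicity by SRB, PBMC viability and proliferation by Alamar Blue. Each well value was divided by the mean of 8 DMSO control wells on the same plate and log10 transformed; duplicate blinded samples were tested at 4 concentrations.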

[2] = compound: FC(F)(F)C(F)(F)C(F)(F)C(F)(F)C(F)(F)C(F)(F)I [Perfluoro-1-iodohexane]
Protocol: as §1

[3] = compound: OCC(F)(F)OC(F)(F)C(F)(F)OC(F)(F)CO [1H,1H,8H,8H-Perfluoro-3,6-dioxaoctane-1,8-diol]
Protocol: as §1

[4] = compound: O=C(O)C(F)(F)C(F)(F)F [Perfluoropropanoic acid]
Protocol: as §1

[5] = compound: O=C(O)C(F)(F)C(F)(F)C(F)(F)F [Perfluorobutanoic acid]
Protocol: as §1

[6] = compound: O=C(O)C(F)(F)OC(F)(F)C(F)(F)OC(F)(F)C(=O)O [Perfluoro-3,6-dioxaoctane-1,8-dioic acid]
Protocol: as §1

[7] = compound: O=C(O)C(F)(F)C(F)(F)OC(F)(F)F [Perfluoro-3-methoxypropanoic acid]
Protocol: as §1

Row | Test System | level (log10) ([1]; 6700 nM) | level (log10) ([1]; 20000 nM) | level (log10) ([2]; 6700 nM) | level (log10) ([2]; 20000 nM) | level (log10) ([2]; 60000 nM) | level (log10) ([3]; 6700 nM) | level (log10) ([3]; 20000 nM) | level (log10) ([3]; 60000 nM) | level (log10) ([4]; 6700 nM) | level (log10) ([4]; 20000 nM) | level (log10) ([4]; 60000 nM) | level (log10) ([5]; 6700 nM) | level (log10) ([5]; 20000 nM) | level (log10) ([5]; 60000 nM) | level (log10) ([6]; 6700 nM) | level (log10) ([6]; 20000 nM) | level (log10) ([6]; 60000 nM) | level (log10) ([7]; 6700 nM) | level (log10) ([7]; 20000 nM) | level (log10) ([7]; 60000 nM)
1 | MyoF:Collagen I | -0.0015 ± 0.0064 | -0.003 ± 0.011 | -0.0295 ± 0.019 | -0.062 ± 0.04 | -0.246 ± 0.094 | 0.0045 ± 0.021 | -0.0165 ± 0.052 | -0.015 ± 0.04 | -0.0205 ± 0.011 | -0.0075 ± 0.026 | 0.0255 ± 0.047 | 0.0075 ± 0.011 | 0.005 ± 0.042 | 0.0025 ± 0.012 | 0.0015 ± 0.015 | -0.005 ± 0.0099 | 0.002 ± 0.011 | 0.006 ± 0.02 | 0 ± 0.016 | 0.0165 ± 0.013
2 | lMphg:CCL3/MIP-1alpha | -0.0295 ± 0.0064 | -0.0295 ± 0.021 | 0.033 ± 0.031 | 0.023 ± 0.0042 | 0.0285 ± 0.033 | -0.004 ± 0.04 | -0.0025 ± 0.022 | 0.0215 ± 0.029 | -0.0105 ± 0.023 | -0.0235 ± 0.0021 | 0.0115 ± 0.013 | -0.0075 ± 0.00071 | -0.0115 ± 0.018 | 0.0355 ± 0.047 | -0.036 ± 0.025 | -0.045 ± 0.0042 | -0.027 ± 0.04 | -0.0175 ± 0.012 | -0.053 ± 0.0071 | -0.0175 ± 0.019
3 | 3C:CD106/VCAM-1 | 0.0025 ± 0.0092 | -0.0075 ± 0.0021 | 0.003 ± 0.024 | 0.0075 ± 0.018 | 0 ± 0.047 | -0.0365 ± 0.021 | -0.0295 ± 0.019 | -0.016 ± 0.024 | -0.025 ± 0.0014 | -0.0145 ± 0.005 | 0.004 ± 0.0014 | -0.002 ± 0.0028 | -0.009 ± 0.0071 | -0.0225 ± 0.011 | 0.0105 ± 0.016 | -0.002 ± 0.02 | 0.0015 ± 0.0064 | -0.0015 ± 0.0064 | -0.009 ± 0.024 | 0.0015 ± 0.018
4 | KF3CT:CXCL9/MIG | 0.0045 ± 0.0035 | 0.009 | -0.002 | -0.0125 ± 0.00071 | 0.0025 ± 0.012 | 0.001 ± 0.011 | 0.006 ± 0.0085 | 0.0015 ± 0.0092 | -0.007 ± 0.0071 | -0.005 ± 0.017 | -0.0095 ± 0.021 | 0 ± 0.0099 | 0.0015 ± 0.0021 | 0.0055 ± 0.022 | -0.0035 ± 0.0092 | 0.0065 ± 0.0078 | 0.017 ± 0.0099 | 0.0125 ± 0.0064 | 0.008 ± 0.0099 | 0.021 ± 0.0014
5 | BE3C:tPA | -0.0135 ± 0.018 | -0.004 ± 0.0057 | -0.008 ± 0.028 | -0.008 ± 0.023 | 0.0125 ± 0.028 | -0.014 ± 0.021 | -0.0255 ± 0.03 | -0.0225 ± 0.00071 | -0.016 ± 0.0042 | -0.028 ± 0.028 | 0 ± 0.0014 | -0.025 ± 0.025 | -0.025 ± 0.04 | -0.037 ± 0.0099 | -0.014 ± 0.018 | -0.0135 ± 0.0035 | -0.0015 ± 0.0021 | -0.007 ± 0.04 | -0.0075 ± 0.019 | 0.004 ± 0.0071
6 | BE3C:MMP-1 | -0.0245 ± 0.036 | -0.0195 ± 0.028 | -0.003 ± 0.0085 | -0.0065 ± 0.011 | 0.043 ± 0.016 | 0.0105 ± 0.011 | -0.013 ± 0.021 | 0.009 ± 0.052 | -0.02 ± 0.041 | 0.001 ± 0.0014 | 0.03 ± 0.064 | -0.004 ± 0.034 | -0.0075 ± 0.013 | 0.021 ± 0.014 | -0.0085 ± 0.029 | -0.023 ± 0.047 | 0.011 ± 0.025 | -0.0025 ± 0.018 | 0.002 ± 0.013 | 0.0155 ± 0.00071
7 | 3C:CD142/Tissue Factor | -0.003 ± 0.044 | -0.014 ± 0.025 | 0.0025 ± 0.032 | 0.0005 ± 0.013 | 0.0185 ± 0.022 | 0.0175 ± 0.0064 | 0.011 ± 0.021 | -0.0045 ± 0.0035 | -0.008 ± 0.018 | -0.015 ± 0.0085 | 0.0065 ± 0.0035 | 0.011 ± 0.0042 | 0.0085 ± 0.021 | 0.0035 ± 0.043 | -0.004 ± 0.042 | -0.0155 ± 0.013 | -0.0025 ± 0.059 | -0.0125 ± 0.066 | -0.049 ± 0.034 | -0.0095 ± 0.057
8 | BE3C:SRB | -0.0025 ± 0.0021 | -0.0045 ± 0.0021 | -0.0125 ± 0.005 | 0.001 ± 0.017 | 0 ± 0.013 | -0.005 ± 0.0085 | -0.0015 ± 0.0064 | -0.0045 ± 0.012 | -0.0015 ± 0.0021 | -0.003 | 0.0035 ± 0.00071 | -0.009 ± 0.011 | 0 ± 0.0042 | -0.0005 ± 0.011 | -0.0005 ± 0.0021 | -0.0035 ± 0.0021 | 0.0025 ± 0.011 | -0.001 | -0.004 ± 0.0014 | 0.004 ± 0.018
9 | CASM3C:CXCL9/MIG | -0.011 ± 0.025 | -0.0165 ± 0.0035 | -0.0015 ± 0.0064 | 0.002 ± 0.0028 | -0.0025 ± 0.036 | 0.0055 ± 0.012 | 0.0175 ± 0.011 | 0.0205 ± 0.0035 | 0.0125 ± 0.015 | 0.0125 ± 0.012 | 0.0255 ± 0.037 | 0.001 ± 0.0028 | -0.004 ± 0.0028 | 0.007 ± 0.0057 | -0.002 ± 0.0057 | -0.011 ± 0.013 | 0.03 ± 0.047 | -0.0175 ± 0.0078 | 0.0065 ± 0.005 | 0.027 ± 0.024
10 | HDF3CGF:Collagen III | 0.001 ± 0.038 | -0.014 ± 0.021 | -0.0405 ± 0.066 | -0.0755 ± 0.0021 | -0.178 ± 0.13 | -0.0035 ± 0.0078 | -0.0105 ± 0.0078 | 0.0165 ± 0.05 | -0.01 ± 0.1 | -0.0045 ± 0.032 | 0.048 ± 0.013 | -0.014 ± 0.011 | -0.004 ± 0.016 | 0.0135 ± 0.029 | -0.0115 ± 0.013 | 0.002 ± 0.011 | 0.0535 ± 0.012 | -0.0025 ± 0.0078 | 0.009 ± 0.024 | 0.039 ± 0.05
11 | MyoF:CD106/VCAM-1 | 0.016 ± 0.0071 | 0.0045 ± 0.019 | -0.031 ± 0.016 | -0.102 ± 0.064 | -0.337 ± 0.03 | 0.0075 ± 0.019 | -0.009 ± 0.0071 | -0.0045 ± 0.015 | -0.02 ± 0.013 | -0.027 ± 0.016 | 0.0035 ± 0.016 | -0.013 ± 0.0028 | -0.007 ± 0.0014 | -0.0075 ± 0.015 | -0.022 ± 0.016 | 0.0025 ± 0.005 | 0.0005 ± 0.019 | -0.014 ± 0.0042 | 0.0035 ± 0.013 | 0.001
12 | HDF3CGF:CCL2/MCP-1 | 0.0015 ± 0.0035 | 0.0095 ± 0.019 | -0.0125 ± 0.013 | -0.02 ± 0.0099 | -0.065 ± 0.034 | 0.0015 ± 0.0092 | 0.0025 ± 0.012 | 0.026 ± 0.047 | -0.022 ± 0.047 | -0.024 ± 0.04 | 0.017 ± 0.051 | -0.008 ± 0.021 | 0.004 ± 0.014 | 0.017 ± 0.0014 | 0 ± 0.016 | 0.005 ± 0.0071 | 0.0135 ± 0.016 | -0.002 ± 0.0071 | -0.0055 ± 0.00071 | 0.0085 ± 0.022
